# According to ChEMBL document CHEMBL5143523, “Construction and activity evaluation of novel benzodioxane derivatives as dual-target antifungal inhibitors” (Eur J Med Chem, 2022):
# The source made the active and inactive calls. No cut-off for these calls is given here.
# What was measured:
# Mus musculus [1] = experiment: In vivo antifungal activity against Candida albicans ATCC SC5314 infected mouse model assessed as reduction in nuclear aggregation at 4 mg/kg, ip administered ever other day for 12 days by hematoxyin-eosin staining based microscopic analysis; format: functional, organism-based; conditions: time 12.0 day
# Candida albicans [2] = experiment: Antifungal activity against fluconazole resistant Candida albicans strain 103 assessed as fungal growth inhibition measured after 72 hrs by CLSI protocol based liquid medium dilution method; format: functional
# Mus musculus [3] = experiment: In vivo antifungal activity against Candida albicans ATCC SC5314 infected mouse assessed as increase in body weight at 4 mg/kg, ip administered ever other day for 12 days; format: functional, organism-based; conditions: time 12.0 day
# Candida albicans [4] = experiment: Antifungal activity against Candida albicans ATCC SC5314 assessed as change in squalene level at 4 ug/ml incubated for 48 hrs by LC-MS analysis; format: functional; conditions: dose 4 µg/ml
# Candida tropicalis = experiment: Antifungal activity against Candida tropicalis ATCC 1369 assessed as fungal growth inhibition measured after 72 hrs by CLSI protocol based liquid medium dilution method; format: functional
# [5] = Nephrotoxicity in mouse infected with Candida albicans ATCC SC5314 assessed as change in plasma BUN level at 4 mg/kg, ip administered ever other day for 12 days; format: toxicity, organism-based; conditions: in vivo, 288 h, time 12 day
# Candida albicans [6] = experiment: Antifungal activity against Candida albicans ATCC 10231 assessed as fungal growth inhibition measured after 72 hrs by CLSI protocol based liquid medium dilution method; format: functional
# Nakaseomyces glabratus = experiment: Antifungal activity against Candida glabrata ATCC 0001 assessed as fungal growth inhibition measured after 72 hrs by CLSI protocol based liquid medium dilution method; format: functional
# Candida albicans [7] = experiment: Antifungal activity against Candida albicans ATCC SC5314 assessed as decrease in ergosterol content at 4 ug/ml incubated for 48 hrs by LC-MS analysis (reference value: 90.6%); format: functional; design: scale not given: the % may be the effect or the level left; conditions: dose 4 µg/ml
# Mus musculus [8] = experiment: In vivo antifungal activity against Candida albicans ATCC SC5314 infected mouse assessed as regular arrangement of endothelial tissue at 4 mg/kg, ip administered ever other day for 12 days by hematoxyin-eosin staining based microscopic analysis; format: functional, organism-based; conditions: time 12.0 day
# Candida albicans [9] = experiment: Induction of morphological changes in Candida albicans assessed as structural damage in fungal cell membrane at 4 ug/ml measured after 48 hrs by TEM analysis; format: functional, organism-based; conditions: dose 4.0 µg/ml
# Candida albicans [10] = experiment: Induction of morphological changes in Candida albicans assessed as disappearance of endoplasmic reticulum at 4 ug/ml measured after 72 hrs by TEM analysis; format: functional, organism-based; conditions: dose 4.0 µg/ml
# [11] = Toxicity in mouse infected with Candida albicans ATCC SC5314 assessed as pathological changes in liver at 4 mg/kg, ip administered ever other day for 12 days by hematoxylin and eosin staining based histopathological analysis; format: organism-based; conditions: in vivo, 288 h, time 12 day
# Candida albicans [12] = experiment: Induction of apoptosis in Candida albicans ATCC SC5314 cells assessed as necrotic cells at 8 ug/ml incubated for 72 hrs by Annexin V-FITC/PI staining based flow cytometry method (reference value: 3.76%); format: functional; conditions: dose 8 µg/ml
# [13] = Toxicity in mouse infected with Candida albicans ATCC SC5314 assessed as pathological changes in spleen at 4 mg/kg, ip administered ever other day for 12 days by hematoxylin and eosin staining based histopathological analysis; format: organism-based; conditions: in vivo, 288 h, time 12 day
# Mus musculus [14] = experiment: In vivo antifungal activity against Candida albicans ATCC SC5314 infected mouse model assessed as regular arrangement of intercellular space at 4 mg/kg, ip administered ever other day for 12 days by hematoxyin-eosin staining based microscopic analysis; format: functional, organism-based; conditions: time 12.0 day
# Aspergillus fumigatus = experiment: Antifungal activity against Aspergillus fumigatus KM8001 assessed as fungal growth inhibition measured after 72 hrs by CLSI protocol based liquid medium dilution method; format: functional
# Squalene epoxidase ERG1 = target: T1, Squalene epoxidase ERG1 (Candida albicans, UniProt Q92206); experiment: Inhibition of SE in Candida albicans ATCC SC5314 incubated for 30 mins using squalene as substrate in presence of NADPH by spectrophotometer analysis
# T1 sequence (Q92206 whole entry): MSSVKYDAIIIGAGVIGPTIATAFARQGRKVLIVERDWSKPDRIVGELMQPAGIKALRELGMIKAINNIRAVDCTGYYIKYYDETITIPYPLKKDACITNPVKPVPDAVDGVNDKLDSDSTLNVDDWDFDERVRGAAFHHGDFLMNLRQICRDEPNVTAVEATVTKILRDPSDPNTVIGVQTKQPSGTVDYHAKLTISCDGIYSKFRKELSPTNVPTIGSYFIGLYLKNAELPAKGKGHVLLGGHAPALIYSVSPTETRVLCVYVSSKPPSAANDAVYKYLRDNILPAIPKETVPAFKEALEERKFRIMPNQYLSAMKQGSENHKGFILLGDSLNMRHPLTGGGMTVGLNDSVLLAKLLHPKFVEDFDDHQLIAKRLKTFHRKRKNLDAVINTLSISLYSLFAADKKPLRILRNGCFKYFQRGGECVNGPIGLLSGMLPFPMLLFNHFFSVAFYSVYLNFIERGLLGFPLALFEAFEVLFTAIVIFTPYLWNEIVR
# Candida albicans [15] = experiment: Antifungal activity against fluconazole resistant Candida albicans strain 17# assessed as fungal growth inhibition measured after 72 hrs by CLSI protocol based liquid medium dilution method; format: functional
# [16] = Drug uptake in fluconazole resistant Candida albicans strain 901 at 4 ug/ml by fluorescence microscopy; format: ADME; conditions: dose 4 µg/ml
# Candida albicans [17] = experiment: Antifungal activity against Candida albicans ATCC SC5314 assessed as change in unknown sterol level at 4 ug/ml incubated for 48 hrs by LC-MS analysis (reference value: 4.3%); format: functional; conditions: dose 4 µg/ml
# Candida albicans [18] = experiment: Induction of morphological changes in Candida albicans assessed as decrease in osmotic pressure of cells at 4 ug/ml measured after 72 hrs by TEM analysis; format: functional, organism-based; conditions: dose 4.0 µg/ml
# Candida albicans [19] = experiment: Antifungal activity against fluconazole resistant Candida albicans strain 901 assessed as fungal growth inhibition measured after 72 hrs by CLSI protocol based liquid medium dilution method; format: functional
# Candida albicans [20] = experiment: Induction of morphological changes in Candida albicans assessed as enlargement of nucleus at 4 ug/ml measured after 72 hrs by TEM analysis; format: functional, organism-based; conditions: dose 4.0 µg/ml
# Candida albicans [21] = experiment: Antifungal activity against Candida albicans ATCC SC5314 assessed as change in lanosterol level at 4 ug/ml incubated for 48 hrs by LC-MS analysis (reference value: 3.7%); format: functional; conditions: dose 4 µg/ml
# Candida albicans [22] = experiment: Antifungal activity against fluconazole resistant Candida albicans strain 904 assessed as fungal growth inhibition measured after 72 hrs by CLSI protocol based liquid medium dilution method; format: functional
# Candida albicans [23] = experiment: Induction of morphological changes in Candida albicans assessed as appearance of edema cavitation at 4 ug/ml measured after 72 hrs by TEM analysis; format: functional, organism-based; conditions: dose 4.0 µg/ml
# [24] = Hepatotoxicity in mouse infected with Candida albicans ATCC SC5314 assessed as change in plasma AST level at 4 mg/kg, ip administered ever other day for 12 days; format: toxicity, organism-based; conditions: in vivo, 288 h, time 12 day
# Candida albicans [25] = experiment: Antifungal activity against fluconazole resistant Candida albicans strain CaR assessed as fungal growth inhibition measured after 72 hrs by CLSI protocol based liquid medium dilution method; format: functional
# [26] = Toxicity in mouse infected with Candida albicans ATCC SC5314 assessed as pathological changes in lung at 4 mg/kg, ip administered ever other day for 12 days by hematoxylin and eosin staining based histopathological analysis; format: organism-based; conditions: in vivo, 288 h, time 12 day
# Candida albicans [27] = experiment: Induction of morphological changes in Candida albicans assessed as structural damage in fungal cell wall at 4 ug/ml measured after 48 hrs by TEM analysis; format: functional, organism-based; conditions: dose 4.0 µg/ml
compound,measurement,setting,value
CC(C)[C@H](NC(=O)c1cccc2c1OCCO2)C(=O)N[C@@H](Cn1cncn1)c1ccccc1,Activity,Mus musculus [1],Active
same,MIC50,Candida albicans [2],0.5 µg/mL
same,Activity,Mus musculus [3],Active
same,Activity,Candida albicans [4],27.5%
same,MIC50,Candida tropicalis,0.125 µg/mL
same,Activity,[5],15.8 mmol/L
same,MIC50,Candida albicans [6],0.125 µg/mL
same,MIC50,Nakaseomyces glabratus,0.25 µg/mL
same,Activity,Candida albicans [7],20.8%
same,Activity,Mus musculus [8],Active
same,Activity,Candida albicans [9],Active
same,Activity,Candida albicans [10],Active
same,Activity,[11],Non-Toxic
same,Activity,Candida albicans [12],43.31%
same,Activity,[13],Non-Toxic
same,Activity,Mus musculus [14],Active
same,MIC50,Aspergillus fumigatus,2 µg/mL
same,IC50,Squalene epoxidase ERG1,621 nM
same,MIC50,Candida albicans [15],1 µg/mL
same,Drug uptake,[16],Active
same,Activity,Candida albicans [17],6.4%
same,Activity,Candida albicans [18],Active
same,MIC50,Candida albicans [19],1 µg/mL
same,Activity,Candida albicans [20],Active
same,Activity,Candida albicans [21],16.4%
same,MIC50,Candida albicans [22],2 µg/mL
same,Activity,Candida albicans [23],Active
same,Activity,[24],85.5 IU/L
same,MIC50,Candida albicans [25],0.5 µg/mL
same,Activity,[26],Non-Toxic
same,Activity,Candida albicans [27],Active
